In ChEMBL document CHEMBL1201862, “PubChem BioAssay data set” (2004):
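Exposure lasted 48 hours, with cells grown in 96-well plates and compounds tested at five concentrations. Here, GI50 denotes the concentration required for 50% inhibition of growth.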 The source made the active and inactive calls. Rule as the data show it: active = GI50 up to about 1.1 µM and inactive = higher.

Tests used:
Assay in all cases: NCI tumour cell line growth inhibition, 48 h
HCC 2998 = test system: HCC 2998
OVCAR-8 = test system: OVCAR-8
HL-60 = test system: HL-60
SK-OV-3 = test system: SK-OV-3
A549 = test system: A549
K562 = test system: K562
UACC-257 = test system: UACC-257
UACC-62 = test system: UACC-62
SF-295 = test system: SF-295
TK-10 = test system: TK-10
HOP-92 = test system: HOP-92
CCRF-CEM = test system: CCRF-CEM
SF-539 = test system: SF-539
SNB-75 = test system: SNB-75
OVCAR-3 = test system: OVCAR-3
ACHN = test system: ACHN
SK-MEL-2 = test system: SK-MEL-2
SK-MEL-5 = test system: SK-MEL-5

Measured: GI50

COc1ccc(-c2nc(N)nc(-c3cc(C)ccc3O)c2Cl)cc1
inactive: HCC 2998 > 100 µM | OVCAR-8 43.2 µM | HL-60 > 100 µM | SK-OV-3 29.9 µM | A549 64.1 µM | K562 > 100 µM | UACC-257 > 100 µM | UACC-62 29 µM | SF-295 60.1 µM | TK-10 32.7 µM | HOP-92 55.1 µM | CCRF-CEM > 100 µM | SF-539 31.7 µM | SNB-75 25 µM | OVCAR-3 30.6 µM | ACHN 47.2 µM

CCOC(=O)CC1(C(=O)OCC)c2[nH]c3ccccc3c2CCN1Cc1ccccc1 (stereo not drawn)
inactive: HCC 2998 13.7 µM | OVCAR-8 23.7 µM | HL-60 21.6 µM | SK-OV-3 28.5 µM | A549 19.5 µM | K562 16.9 µM | UACC-257 17.7 µM | UACC-62 17.1 µM | SF-295 16.8 µM | TK-10 31.2 µM | SK-MEL-2 17.9 µM | SK-MEL-5 20 µM | HOP-92 17.5 µM | CCRF-CEM 23.7 µM | SF-539 19.9 µM | SNB-75 20.8 µM | OVCAR-3 14.1 µM | ACHN 21.2 µM

O=S1(=O)OCCOS(=O)(=O)C1(Cl)Cl
inactive: HCC 2998 > 100 µM | OVCAR-8 > 100 µM | HL-60 42 µM | SK-OV-3 > 100 µM | A549 > 100 µM | K562 > 100 µM | UACC-257 > 100 µM | UACC-62 31.3 µM | SF-295 46 µM | TK-10 > 100 µM | SK-MEL-2 > 100 µM | SK-MEL-5 74.8 µM | HOP-92 97.5 µM | CCRF-CEM 54.2 µM | SF-539 > 100 µM | SNB-75 > 100 µM | OVCAR-3 > 100 µM

CCCCCCC(/C=N/O)C(C)(O)CCC (stereo not drawn)
inactive: HCC 2998 > 100 µM | OVCAR-8 > 100 µM | HL-60 67.9 µM | A549 > 100 µM | K562 84.3 µM | UACC-257 > 100 µM | UACC-62 > 100 µM | SF-295 > 100 µM | TK-10 > 100 µM | SK-MEL-2 > 100 µM | SK-MEL-5 > 100 µM | CCRF-CEM > 100 µM | SF-539 > 100 µM | SNB-75 > 100 µM | OVCAR-3 > 100 µM | ACHN > 100 µM

CN(C)[C@@H]1C(O)=C(C(=O)NCNCCCC(=O)O)C(=O)[C@@]2(O)C(O)=C3C(=O)c4c(O)cccc4[C@@](C)(O)[C@H]3C[C@@H]12
inactive: HCC 2998 > 100 µM | OVCAR-8 > 100 µM | HL-60 > 100 µM | SK-OV-3 > 100 µM | A549 > 100 µM | K562 > 100 µM | UACC-257 > 100 µM | UACC-62 > 100 µM | SF-295 > 100 µM | TK-10 > 100 µM | SK-MEL-2 > 100 µM | SK-MEL-5 > 100 µM | HOP-92 > 100 µM | CCRF-CEM > 100 µM | SF-539 > 100 µM | OVCAR-3 > 100 µM | ACHN > 100 µM

O=C1OC(c2cccc(C(F)(F)F)c2)c2ccc3ccccc3c21 (stereo not drawn)
inactive: HCC 2998 > 10 µM | OVCAR-8 > 10 µM | HL-60 5.5 µM | SK-OV-3 > 10 µM | A549 36.8 µM | K562 4.76 µM | UACC-257 6.32 µM | UACC-62 7.41 µM | SF-295 12.2 µM | TK-10 > 10 µM | SK-MEL-2 > 10 µM | SK-MEL-5 4.74 µM | HOP-92 91.8 µM | CCRF-CEM 9.06 µM | SF-539 > 100 µM | SNB-75 18.7 µM | OVCAR-3 > 10 µM | ACHN > 10 µM

CCC(C)(O)c1cn(-c2cccc(S(=O)(=O)O)c2)nn1 (stereo not drawn)
inactive: HCC 2998 > 100 µM | OVCAR-8 > 100 µM | HL-60 > 100 µM | SK-OV-3 > 100 µM | A549 > 100 µM | K562 > 100 µM | UACC-257 > 100 µM | UACC-62 > 100 µM | SF-295 > 100 µM | TK-10 > 100 µM | SK-MEL-2 > 100 µM | SK-MEL-5 > 100 µM | HOP-92 > 100 µM | CCRF-CEM > 100 µM | SF-539 > 100 µM | SNB-75 > 100 µM | OVCAR-3 > 100 µM | ACHN > 100 µM

COc1cc(/C=N\O[Si](C)(C)C(C)(C)C)ccc1O[Si](C)(C)C(C)(C)C
inactive: HCC 2998 24.5 µM | OVCAR-8 64.1 µM | HL-60 37.8 µM | SK-OV-3 > 100 µM | A549 > 100 µM | K562 32.5 µM | UACC-257 > 100 µM | UACC-62 > 100 µM | SF-295 78.5 µM | TK-10 > 100 µM | SK-MEL-2 88.9 µM | SK-MEL-5 > 100 µM | HOP-92 25.4 µM | CCRF-CEM 42.9 µM | SF-539 41.7 µM | SNB-75 > 100 µM | OVCAR-3 22.3 µM | ACHN 51.4 µM

COC(=O)C(C(=O)C(=O)Nc1nnc(S)[nH]1)c1csc(N)n1 (stereo not drawn)
inactive: HCC 2998 > 100 µM | OVCAR-8 > 100 µM | HL-60 > 100 µM | SK-OV-3 > 100 µM | A549 > 100 µM | K562 > 100 µM | UACC-257 > 100 µM | UACC-62 > 100 µM | SF-295 > 100 µM | TK-10 > 100 µM | SK-MEL-2 > 100 µM | SK-MEL-5 > 100 µM | CCRF-CEM > 100 µM | SF-539 > 100 µM | SNB-75 > 100 µM | OVCAR-3 > 100 µM | ACHN > 100 µM

COc1ccc(NC(=O)CCc2cc(C(C)(C)C)[nH]n2)cc1
inactive: HCC 2998 > 100 µM | OVCAR-8 > 100 µM | HL-60 > 100 µM | SK-OV-3 > 100 µM | A549 > 100 µM | K562 > 100 µM | UACC-257 > 100 µM | UACC-62 > 100 µM | SF-295 > 100 µM | TK-10 > 100 µM | SK-MEL-2 > 100 µM | SK-MEL-5 > 100 µM | HOP-92 > 100 µM | CCRF-CEM > 100 µM | SF-539 > 100 µM | SNB-75 > 100 µM | OVCAR-3 > 100 µM | ACHN > 100 µM

O=C1[C@@H]2C(c3ccccc3[N+](=O)[O-])=NO[C@@H]2C(=O)N1c1ccc(Cc2ccc(N3C(=O)[C@H]4C(c5ccccc5[N+](=O)[O-])=NO[C@H]4C3=O)cc2)cc1
inactive: HCC 2998 > 100 µM | OVCAR-8 > 100 µM | K562 > 100 µM | UACC-257 > 100 µM | UACC-62 > 100 µM | SF-295 > 100 µM | TK-10 > 100 µM | SK-MEL-5 > 100 µM | HOP-92 > 100 µM | CCRF-CEM > 100 µM | SF-539 > 100 µM | SNB-75 > 100 µM | OVCAR-3 > 100 µM | ACHN > 100 µM

COc1ccc(-c2onc(-c3c(C)cc(C)cc3C)c2C2=NCCCN2)cc1
inactive: HCC 2998 > 100 µM | OVCAR-8 58.9 µM | HL-60 15.1 µM | SK-OV-3 30.6 µM | A549 65.8 µM | K562 28.8 µM | UACC-257 21.1 µM | UACC-62 55.2 µM | SF-295 22.8 µM | SK-MEL-2 36.1 µM | SK-MEL-5 23 µM | CCRF-CEM 35 µM | SF-539 21.6 µM | OVCAR-3 57 µM | ACHN 64.1 µM

OC12c3ccccc3C1CCCCCC21OCCCO1 (stereo not drawn)
inactive: OVCAR-8 > 100 µM | HL-60 11.4 µM | SK-OV-3 > 100 µM | A549 > 100 µM | K562 > 100 µM | UACC-257 > 100 µM | UACC-62 > 100 µM | SF-295 > 100 µM | TK-10 > 100 µM | SK-MEL-2 > 100 µM | SK-MEL-5 > 100 µM | CCRF-CEM > 100 µM | SF-539 > 100 µM | SNB-75 > 100 µM | OVCAR-3 > 100 µM | ACHN > 100 µM

CCOc1ccc(NC(=O)CC2SC(Nc3ccc(C)cc3C)=NC2=O)cc1 (stereo not drawn)
inactive: HCC 2998 > 100 µM | OVCAR-8 89.1 µM | HL-60 43.8 µM | A549 > 100 µM | K562 52 µM | UACC-257 85.7 µM | UACC-62 54.2 µM | SF-295 > 100 µM | TK-10 > 100 µM | SK-MEL-2 > 100 µM | SK-MEL-5 > 100 µM | HOP-92 > 100 µM | CCRF-CEM 29.2 µM | SF-539 26.7 µM | SNB-75 49.2 µM | OVCAR-3 48.8 µM | ACHN > 100 µM

CCO/C=C1\N=C(c2ccccc2Br)OC1=O
inactive: HCC 2998 > 100 µM | OVCAR-8 > 100 µM | HL-60 > 100 µM | SK-OV-3 > 100 µM | A549 > 100 µM | K562 > 100 µM | UACC-257 > 100 µM | UACC-62 > 100 µM | SF-295 > 100 µM | TK-10 > 100 µM | SK-MEL-2 > 100 µM | HOP-92 > 100 µM | CCRF-CEM > 100 µM | SF-539 > 100 µM | SNB-75 > 100 µM | OVCAR-3 > 100 µM | ACHN > 100 µM

Cn1c2c([N+](=O)[O-])cccc2c(=O)c2c(O)cc3c(c21)C=CC(C)(C)O3
inactive: HCC 2998 20.7 µM | OVCAR-8 29.6 µM | HL-60 16.6 µM | SK-OV-3 46.7 µM | A549 34.8 µM | K562 39.3 µM | UACC-257 46.5 µM | UACC-62 21.7 µM | SF-295 24.1 µM | TK-10 54.6 µM | SK-MEL-2 35.9 µM | SK-MEL-5 28.3 µM | CCRF-CEM 41 µM | SF-539 22.5 µM | SNB-75 23.9 µM | ACHN 43.5 µM
